In ChEMBL document CHEMBL1201862, “PubChem BioAssay data set” (2004):
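Grown in 96-well plates, cells were treated for 48 hours with each compound at five concentrations. Insufficient inhibition: endpoint recorded as highest concentration tested. GI50: concentration for 50% inhibition of growth.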 Activity calls are given as the source filed them. No stated cut-off is given here; in the data, active = GI50 up to about 1.1 µM and inactive = higher.

Tests used:
Assay in all cases: inhibition of tumour cell growth, NCI panel, 48 h
LXFL 529 = system: LXFL 529
M19-MEL = system: M19-MEL
SNB-78 = system: SNB-78
DMS-114 = system: DMS-114
DMS-273 = system: DMS-273
XF498 = system: XF498
KM-20L2 = system: KM-20L2
RXF 631 = system: RXF 631
HOP-18 = system: HOP-18

| SMILES | GI50 (LXFL 529) | GI50 (M19-MEL) | GI50 (SNB-78) | GI50 (DMS-114) | GI50 (DMS-273) | GI50 (XF498) | GI50 (KM-20L2) | GI50 (RXF 631) | GI50 (HOP-18) |
| --- | --- | --- | --- | --- | --- | --- | --- | --- | --- |
| C#CCSc1nc(N)c2ncn(C3OC(CO)C(O)C3O)c2n1 (stereo unspecified) | > 100 µM (inactive) | > 100 µM (inactive) | > 100 µM (inactive) | > 100 µM (inactive) | > 100 µM (inactive) | > 100 µM (inactive) |  |  |  |
| NNC(=O)CCC(=O)Nc1cc(Cl)c(Cl)cc1Cl | > 100 µM (inactive) | > 100 µM (inactive) | > 100 µM (inactive) | > 100 µM (inactive) | > 100 µM (inactive) | > 100 µM (inactive) | > 100 µM (inactive) | > 100 µM (inactive) |  |
| Cc1ccc(/C=C/C(=O)c2sc(-c3nc(C)c(C(=O)/C=C/c4ccc(C)cc4)s3)nc2C)cc1 |  | > 100 µM (inactive) | > 100 µM (inactive) | > 100 µM (inactive) | > 100 µM (inactive) |  | > 100 µM (inactive) | > 100 µM (inactive) | > 100 µM (inactive) |
| C/C(CCc1ccccc1)=N\NC(N)=S | 43 µM (inactive) | 74.8 µM (inactive) | > 100 µM (inactive) | 39 µM (inactive) | > 100 µM (inactive) | 43.4 µM (inactive) | > 100 µM (inactive) | > 100 µM (inactive) | > 100 µM (inactive) |
| O=c1ncccn1C1C=C(CO)C(O)C1O (stereo unspecified) | > 50 µM (inactive) |  | > 50 µM (inactive) | > 50 µM (inactive) | > 50 µM (inactive) | > 50 µM (inactive) | > 50 µM (inactive) |  | > 50 µM (inactive) |
| O=C(c1ccccc1)c1ccc(OCCOc2ccc(Nc3ccccc3)cc2)cc1 | 41.1 µM (inactive) | 70.3 µM (inactive) | 35.2 µM (inactive) | 6.84 µM (inactive) | > 100 µM (inactive) | 16.1 µM (inactive) | > 100 µM (inactive) | 17.7 µM (inactive) | 65.5 µM (inactive) |
| CCOP12(OCC)NC(=O)OC1(C(F)(F)F)c1ccccc1O2 (stereo unspecified) | > 100 µM (inactive) | > 100 µM (inactive) | > 100 µM (inactive) | > 100 µM (inactive) | > 100 µM (inactive) |  |  |  | > 100 µM (inactive) |
| NC(=O)CCC(NC(=O)Cc1ccccc1)C(=O)O (stereo unspecified) | > 2470 µM (inactive) | > 2470 µM (inactive) |  | > 2470 µM (inactive) | > 2470 µM (inactive) |  | > 2470 µM (inactive) |  |  |
| CC1=NN(c2ccccc2)C(=O)/C1=C\c1ccc([N+](=O)[O-])cc1 | 32.1 µM (inactive) |  | 28.4 µM (inactive) | 20.8 µM (inactive) | 25 µM (inactive) | 16.6 µM (inactive) | 22.8 µM (inactive) | 29.5 µM (inactive) | < 0.01 µM (active) |
| CN(CCO)c1nc(N)cc(=O)[nH]1 | > 100 µM (inactive) | > 100 µM (inactive) | > 100 µM (inactive) | > 100 µM (inactive) | > 100 µM (inactive) | > 100 µM (inactive) | > 100 µM (inactive) |  | > 100 µM (inactive) |
| O=C1Oc2cc3c(c4cccc1c24)OCN(c1ccccc1)C3 | 38.6 µM (inactive) | 38.8 µM (inactive) |  | 38.1 µM (inactive) | > 100 µM (inactive) | > 100 µM (inactive) | > 100 µM (inactive) |  |  |
| CC(C)CN1CC(C)C(=O)NC1=O (stereo unspecified) | > 100 µM (inactive) | > 100 µM (inactive) | > 100 µM (inactive) | > 100 µM (inactive) | > 100 µM (inactive) | > 100 µM (inactive) | > 100 µM (inactive) |  |  |
| Oc1ccc(-c2c3ccccc3c(-c3ccc(O)cc3)c3ccccc23)cc1 | 91.6 µM (inactive) | > 100 µM (inactive) | > 100 µM (inactive) | > 100 µM (inactive) | > 100 µM (inactive) | > 100 µM (inactive) | > 100 µM (inactive) |  | > 100 µM (inactive) |
| O=C(c1nc2ccccc2nc1O)C(O)c1ccccc1 (stereo unspecified) | 50.2 µM (inactive) | 90.8 µM (inactive) | > 100 µM (inactive) | 48.6 µM (inactive) | 60.3 µM (inactive) |  | 46.5 µM (inactive) |  |  |
| O=C(CSc1nnc(Cc2ccccc2)o1)Nc1ccccc1 | > 100 µM (inactive) | > 100 µM (inactive) | > 100 µM (inactive) | > 100 µM (inactive) | > 100 µM (inactive) |  | > 100 µM (inactive) |  | > 100 µM (inactive) |
| C=C1CCC2(C(C)=O)COC1(C)O2 (stereo unspecified) |  | > 100 µM (inactive) |  | > 100 µM (inactive) | > 100 µM (inactive) | 62.2 µM (inactive) |  |  | > 100 µM (inactive) |
| CCOC(=O)NC(=O)c1cn(-c2ccc(CCOC(=O)CCCCCCCCC(=O)OCCc3ccc(-n4cc(C(=O)NC(=O)OCC)c(=O)[nH]c4=O)cc3)cc2)c(=O)[nH]c1=O | > 100 µM (inactive) | > 100 µM (inactive) | > 100 µM (inactive) | > 100 µM (inactive) |  | > 100 µM (inactive) | > 100 µM (inactive) | > 100 µM (inactive) | > 100 µM (inactive) |
| COc1c(CC(C)=O)c2ccccc2n1C(C)=O | > 100 µM (inactive) | > 100 µM (inactive) | > 100 µM (inactive) |  | > 100 µM (inactive) | > 100 µM (inactive) | > 100 µM (inactive) | > 100 µM (inactive) | > 100 µM (inactive) |
| C/C(CC(=O)Nc1cccc(Cl)c1C)=N\NC(N)=S | > 100 µM (inactive) | > 100 µM (inactive) | > 100 µM (inactive) |  |  | > 100 µM (inactive) | > 100 µM (inactive) | > 100 µM (inactive) |  |
| O=C1C(c2ccc(Cl)cc2)=[N+]([O-])c2ccccc21 | 5.36 µM (inactive) | > 100 µM (inactive) |  | 4.07 µM (inactive) |  | 20.4 µM (inactive) | 25.4 µM (inactive) | 23.6 µM (inactive) | 21.8 µM (inactive) |
| COC1C2c3ccccc3C(C#N)(Cc3ccc4c(c32)OCO4)N1C(=O)c1ccccc1 (stereo unspecified) | 46 µM (inactive) |  | 47.8 µM (inactive) | 19.6 µM (inactive) | 5.65 µM (inactive) | 21.3 µM (inactive) | 43.1 µM (inactive) | > 100 µM (inactive) | 80.7 µM (inactive) |
| C[C@@H]1C[C@@H](O)[C@]2(O)O[C@@H]3C[C@@]4(C=O)[C@@H](CC[C@@H]5[C@@H]4CC[C@]4(C)[C@@H](C6=CC(=O)OC6)CC[C@]54O)C[C@H]3O[C@@H]2O1 [CALACTIN] | 0.00501 µM (active) | 0.0206 µM (active) | 0.0106 µM (active) | 0.00141 µM (active) | 0.00455 µM (active) | 0.0159 µM (active) | 0.0182 µM (active) |  | 0.0042 µM (active) |
| CC1=C(NC(=O)/C(=N/NC(=S)NN)C2C(=O)CC(C)(C)CC2=O)C(=O)c2ccccc2C1=O | 11.4 µM (inactive) | 1.33 µM (inactive) | 15.2 µM (inactive) | 2.12 µM (inactive) | 6.21 µM (inactive) | 14.9 µM (inactive) | 11.4 µM (inactive) | 7.8 µM (inactive) | 15.7 µM (inactive) |
